Patent US20190282640A1 (priority 2016, published 2019)

Molecular target: C5 (Homo sapiens, UniProt P01031)
Format: cell-based

Sequence of C5 (P01031 678-1676): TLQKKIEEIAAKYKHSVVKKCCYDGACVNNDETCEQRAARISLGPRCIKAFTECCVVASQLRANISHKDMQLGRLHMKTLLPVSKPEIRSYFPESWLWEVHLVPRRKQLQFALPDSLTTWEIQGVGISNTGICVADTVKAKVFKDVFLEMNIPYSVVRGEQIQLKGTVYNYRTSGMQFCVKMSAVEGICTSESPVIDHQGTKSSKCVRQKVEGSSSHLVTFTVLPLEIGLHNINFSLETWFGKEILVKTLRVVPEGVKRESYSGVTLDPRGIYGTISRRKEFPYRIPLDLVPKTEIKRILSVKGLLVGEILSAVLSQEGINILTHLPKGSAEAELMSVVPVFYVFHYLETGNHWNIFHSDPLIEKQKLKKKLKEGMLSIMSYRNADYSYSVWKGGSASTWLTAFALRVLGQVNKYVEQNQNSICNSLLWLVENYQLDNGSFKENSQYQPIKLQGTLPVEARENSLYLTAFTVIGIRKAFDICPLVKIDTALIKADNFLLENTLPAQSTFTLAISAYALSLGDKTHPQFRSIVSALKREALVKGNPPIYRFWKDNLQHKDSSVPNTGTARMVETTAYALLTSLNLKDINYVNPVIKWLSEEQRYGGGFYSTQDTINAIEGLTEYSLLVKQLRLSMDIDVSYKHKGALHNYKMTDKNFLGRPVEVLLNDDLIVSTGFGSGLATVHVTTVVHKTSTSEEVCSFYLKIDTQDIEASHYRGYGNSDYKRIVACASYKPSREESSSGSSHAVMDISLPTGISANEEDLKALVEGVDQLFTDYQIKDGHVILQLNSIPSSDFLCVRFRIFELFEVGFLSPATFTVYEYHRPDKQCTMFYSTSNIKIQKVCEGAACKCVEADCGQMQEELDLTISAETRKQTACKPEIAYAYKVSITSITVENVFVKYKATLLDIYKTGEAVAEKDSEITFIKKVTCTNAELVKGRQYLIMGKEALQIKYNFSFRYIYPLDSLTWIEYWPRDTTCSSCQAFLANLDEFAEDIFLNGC
Sequence of C5 (P01031 19-673): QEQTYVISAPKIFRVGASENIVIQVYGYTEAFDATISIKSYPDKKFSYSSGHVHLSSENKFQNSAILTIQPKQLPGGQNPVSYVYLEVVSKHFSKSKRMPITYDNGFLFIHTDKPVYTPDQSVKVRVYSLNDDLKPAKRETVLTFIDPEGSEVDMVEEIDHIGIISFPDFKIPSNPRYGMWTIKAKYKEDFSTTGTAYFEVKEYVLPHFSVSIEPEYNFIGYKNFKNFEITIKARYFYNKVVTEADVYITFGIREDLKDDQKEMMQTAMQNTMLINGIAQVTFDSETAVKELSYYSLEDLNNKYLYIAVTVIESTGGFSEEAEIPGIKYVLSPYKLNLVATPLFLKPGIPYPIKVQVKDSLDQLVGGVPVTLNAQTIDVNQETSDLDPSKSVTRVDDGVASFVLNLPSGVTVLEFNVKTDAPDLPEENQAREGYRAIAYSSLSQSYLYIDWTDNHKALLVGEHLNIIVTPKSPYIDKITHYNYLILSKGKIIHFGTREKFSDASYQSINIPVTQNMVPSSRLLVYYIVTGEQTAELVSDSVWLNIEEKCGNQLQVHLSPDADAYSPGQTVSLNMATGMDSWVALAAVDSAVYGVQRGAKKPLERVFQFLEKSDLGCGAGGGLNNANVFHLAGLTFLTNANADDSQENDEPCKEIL

Eculizumab
effect of C5 inhibition on MRB LCMV G neutralization: able to prevent viral neutralization
